Test results as given in ChEMBL document CHEMBL1158636, “Discovery of a novel sulfonamide-pyrazolopiperidine series as potent and efficacious gamma-secretase inhibitors (Part II)” (Bioorg Med Chem Lett, 2010).

Key:
[1] = (§1) Oxidative metabolic stability in human liver microsomes assessed as compound remaining at 2 uM after 30 mins in presence of 1 mM UDPGA; format: ADME, Microsome; conditions: liver microsomes, read-out: Stability
[2] = Inhibition of gamma-secretase-mediated APP cleavage assessed as amyloid beta40 level after 2 hrs by ELISA
Liver microsomes [3] = experiment: (§2) Oxidative metabolic stability in human liver microsomes assessed as compound remaining at 1 uM after 30 mins in presence of 1 mM NADPH; format: ADME, Microsome; conditions: microsomes, 0.5 h, 1 µM
[4] = Inhibition of gamma-secretase-mediated notch cleavage after 2 hrs by ELISA
Gamma-secretase = experiment: Inhibition of gamma-secretase-mediated notch cleavage in human SNC cells by ELISA; format: cell-based
[5] = biological target: Gamma-secretase (Homo sapiens) (UniProt Q96BI3+Q9NZ42+Q8WW43+P49768+Q92542+P49810); experiment: Inhibition of gamma-secretase-mediated APP cleavage in human SNC cells by ELISA; format: cell-based
[6] = as §2; format: ADME, Microsome; conditions: liver microsomes, read-out: Stability
Mus musculus = experiment: Neuroprotective activity in wild type FVB mouse brain assessed as reduction of amyloid beta 40 level at 1 mg/kg, po after 3 hrs; format: functional; design: scale not given: the % may be the effect or the level left
Liver microsomes [7] = experiment: as §1; format: ADME, Microsome; conditions: microsomes, 0.5 h, 2 µM

Row | Compound | remaining at 0.5 h, 2 µM [1] [%] | IC50 [2] [nM] | Stability (Liver microsomes [3]) [%] | IC50 [4] [nM] | IC50 (Gamma-secretase) [nM] | ED50 [5] [nM] | remaining at 0.5 h, 1 µM [6] [%] | Activity (Mus musculus) [%] | Stability (Liver microsomes [7]) [%]
1 | O=S(=O)(c1ccc(C(F)(F)F)nc1)N1C(C2CC2)c2cn[nH]c2C(F)(F)C12CC2 (racemic) [4'-CYCLOPROPYL-7',7'-DIFLUORO-5'-(6-(TRIFLUOROMETHYL)PYRIDIN-3-YLSULFONYL)-1',4',5',7'-TETRAHYDRO SPIRO[CYCLOPROPANE-1,6'-PYRAZOLO[4,3-C]PYRIDINE] (ENANTIOMERIC MIX)] | 89 | 0.2 | 61 | 2 | 50 | – | – | – | –
2 | C[C@@H]1N(S(=O)(=O)c2ccc(C(F)(F)F)nc2)[C@H](C2CC2)c2cn[nH]c2C1(F)F (relative stereo) | 59 | 1.2 | – | 20 | 358 | 6 | 79 | – | –
3 | CC[C@@H]1c2cn[nH]c2C(F)(F)[C@H](CC)N1S(=O)(=O)c1ccc(C(F)(F)F)nc1 (relative stereo) | 66 | 1.8 | – | 50 | 304 | 6 | 22 | – | –
4 | C[C@@H]1c2cn[nH]c2C(=O)[C@H](C)N1S(=O)(=O)c1ccc(C(F)(F)F)nc1 (stereo in doubt) | 91 | 13.2 | – | 144 | 18300 | 1100 | 67 | – | –
5 | CC[C@@H]1c2cn[nH]c2C(=O)[C@H](CC)N1S(=O)(=O)c1ccc(Cl)cc1 (stereo in doubt) | 65 | 0.1 | – | 5 | 288 | 5 | 10 | – | –
6 | O=S(=O)(c1ccc(C(F)(F)F)nc1)N1[C@@H](C2CC2)c2cn[nH]c2C(F)(F)[C@H]1C1CC1 (stereo in doubt) | 75 | 0.6 | – | 23 | 138 | 2 | 80 | 20 | –
7 | O=S(=O)(c1ccc(C(F)(F)F)nc1)N1[C@@H](C2CC2)c2cn[nH]c2C(F)(F)[C@@H]1C1CC1 (stereo in doubt) | 61 | 0.3 | – | 3 | 34 | 0.5 | 53 | – | –
8 | O=S(=O)(c1ccc(C(F)(F)F)nc1)N1[C@H](C2CC2)c2cn[nH]c2C(F)(F)[C@H]1C1CC1 (stereo in doubt) | 41 | 0.1 | – | 3 | 13 | 0.2 | 43 | – | –
9 | O=S(=O)(c1ccc(C(F)(F)F)nc1)N1[C@@H](C2CC2)C(F)(F)c2[nH]ncc2[C@H]1C1CC1 (stereo in doubt) | 67 | 0.8 | – | 47 | 304 | 3 | 71 | – | –
10 | CC(C)(C)C1C(=O)c2[nH]ncc2C(C2CC2)N1S(=O)(=O)c1ccc(C(F)(F)F)nc1 (stereo in doubt; 3u) [6-TERT-BUTYL-4-CYCLOPROPYL-5-(6-(TRIFLUOROMETHYL)PYRIDIN-3-YLSULFONYL)-5,6-DIHYDRO-1H-PYRAZOLO[4,3-C]PYRIDIN-7(4H)-ONE (STRUCTURAL MIX)] | – | 4.8 | 12 | 107 | 1640 | – | – | – | –
11 | O=C1c2[nH]ncc2C(C2CC2)N(S(=O)(=O)c2ccc(C(F)(F)F)nc2)C12CC2 (stereo in doubt; 16e) [4'-CYCLO PROPYL-5'-(6-(TRIFLUORO METHYL)PYRIDIN-3-YL SULFONYL)-4',5'-DIHYDROSPIRO[CYCLOPROPANE-1,6'-PYRAZOLO[4,3-C]PYRIDIN]-7'(1'H)-ONE (ENANTIOMERIC MIX)] | – | 1070 | 83 | – | > 40000 | – | – | – | 88
12 | O=C1c2[nH]ncc2C(C2CC2)N(S(=O)(=O)c2ccc(C(F)(F)F)nc2)C12CC2 (stereo in doubt; 16f) [4'-CYCLO PROPYL-5'-(6-(TRIFLUORO METHYL)PYRIDIN-3-YL SULFONYL)-4',5'-DIHYDROSPIRO[CYCLOPROPANE-1,6'-PYRAZOLO[4,3-C]PYRIDIN]-7'(1'H)-ONE (ENANTIOMERIC MIX)] | – | 1.4 | – | 15 | 250 | – | – | 27 | 94
13 | O=C1c2[nH]ncc2C(C2CC2)N(S(=O)(=O)c2ccc(C(F)(F)F)cn2)C12CC2 (stereo in doubt; 16h) [4'-CYCLOPROPYL-5'-(5-(TRIFLUORO METHYL)PYRIDIN-2-YL SULFONYL)-4',5'-DIHYDROSPIRO[CYCLOPROPANE-1,6'-PYRAZOLO[4,3-C]PYRIDIN]-7'(1'H)-ONE (ENANTIOMERIC MIX)] | – | 897 | 80 | 8280 | > 40000 | – | – | – | –
14 | O=C1c2[nH]ncc2C(C2CC2)N(S(=O)(=O)c2ccc(C(F)(F)F)cn2)C12CC2 (stereo in doubt; 16i) [4'-CYCLOPROPYL-5'-(5-(TRIFLUORO METHYL)PYRIDIN-2-YL SULFONYL)-4',5'-DIHYDROSPIRO[CYCLOPROPANE-1,6'-PYRAZOLO[4,3-C]PYRIDIN]-7'(1'H)-ONE (ENANTIOMERIC MIX)] | – | 9.6 | 82 | 223 | 2290 | – | – | – | 96
15 | O=S(=O)(c1ccc(C(F)(F)F)nc1)N1C(C2CC2)c2cn[nH]c2C(F)(F)C12CC2 (stereo in doubt; 17b) [4'-CYCLOPROPYL-7',7'-DIFLUORO-5'-(6-(TRIFLUOROMETHYL)PYRIDIN-3-YLSULFONYL)-1',4',5',7'-TETRAHYDRO SPIRO[CYCLOPROPANE-1,6'-PYRAZOLO[4,3-C]PYRIDINE] (ENANTIOMERIC MIX)] | – | – | 85 | 1 | 25 | – | – | – | 85
16 | O=S(=O)(c1ccc(C(F)(F)F)nc1)N1C(C2CC2)c2cn[nH]c2C(F)(F)C12CC2 (stereo in doubt; 17c) [4'-CYCLOPROPYL-7',7'-DIFLUORO-5'-(6-(TRIFLUOROMETHYL)PYRIDIN-3-YLSULFONYL)-1',4',5',7'-TETRAHYDRO SPIRO[CYCLOPROPANE-1,6'-PYRAZOLO[4,3-C]PYRIDINE] (ENANTIOMERIC MIX)] | – | 56 | 72 | 221 | 9280 | – | – | – | 100
